Results from patent US7169786B2, “Isoxazoline derivatives as anti-depressants” (priority 2001, dated 2007).

How the values were obtained:
[1] = target: T1, hα2A receptor (Homo sapiens, UniProt P08913); assay: Radioligand binding experiment for hα2A receptor ([3H]-raulwolscine); conditions: membranes of CHO cells expressing human α2A receptor, [3H]raulwolscine 1 nM; for IC50: read-out: hα2A pIC50 (converted)
T1 construct: expressed in transfected cells
T1 sequence (P08913 1-465): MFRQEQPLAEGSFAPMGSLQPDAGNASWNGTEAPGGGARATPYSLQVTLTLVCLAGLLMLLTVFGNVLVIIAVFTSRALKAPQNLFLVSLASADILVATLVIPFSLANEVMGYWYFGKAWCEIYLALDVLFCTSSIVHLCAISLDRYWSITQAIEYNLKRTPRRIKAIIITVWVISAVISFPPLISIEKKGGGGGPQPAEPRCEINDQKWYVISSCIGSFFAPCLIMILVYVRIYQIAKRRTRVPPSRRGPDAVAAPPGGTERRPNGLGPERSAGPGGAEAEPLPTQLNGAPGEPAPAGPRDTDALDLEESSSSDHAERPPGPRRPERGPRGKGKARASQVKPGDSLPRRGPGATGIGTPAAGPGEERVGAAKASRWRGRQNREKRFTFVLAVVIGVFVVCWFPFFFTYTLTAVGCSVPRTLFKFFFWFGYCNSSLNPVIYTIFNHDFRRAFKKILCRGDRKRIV
Method: (§1) The interaction of the compounds of Formula (I) with hα2-receptors and h5-HT-transporters was assessed in in vitro radioligand binding experiments. In general, a low concentration of a radioligand with a high binding affinity for a particular receptor or transporter is incubated with a sample of a tissue preparation enriched in a particular receptor or transporter or with a preparation of cells expressing cloned human receptors in a buffered medium. During the incubation, the radioligand binds to the receptor or transporter. When equilibrium of binding is reached, the receptor bound radioactivity is separated from the non-bound radioactivity, and the receptor- or transporter-bound activity is counted. The interaction of the test compounds with the receptor is assessed in competition binding experiments. Various concentrations of the test compound are added to the incubation mixture containing the receptor- or transporter preparation and the radioligand. The test compound in proportion to its binding affinity and its concentration inhibits binding of the radioligand. The radioligand used for hα2A, hα2B and hα2C receptor binding was [^3H]-raulwolscine and for the h5-HT transporter was [^3H]paroxetine.
(§2) CHO cells, stabile transfected with human adrenergic-α2A-, -α2B or α2C receptor cDNA, were cultured in Dulbecco's Modified Eagle's Medium (DMEM)/Nutrient mixture Ham's F12 (ratio 1:1)(Gibco, Gent-Belgium) supplemented with 10% heat inactivated fetal calf serum (Life Technologies, Merelbeke-Belgium) and antibiotics (100 IU/ml penicillin G, 100 μg/ml streptomycin sulphate, 110 μg/ml pyruvic acid and 100 μg/ml L-glutamine). One day before collection, cells were induced with 5 mM sodiumbutyrate. Upon 80–90% of confluence, cells were scraped in phosphate buffered saline without Ca^2+ and Mg^2+ and collected by centrifugation at 1500×g for 10 min. The cells were homogenised in Tris-HCl 50 mM using an Ultraturrax homogenizer and centrifuged for 10 min at 23,500×g. The pellet was washed once by resuspension and rehomogenization and the final pellet was resuspended in Tris-HCl, divided in 1 ml aliquots and stored at −70° C.
(§3) Membranes were thawed and re-homogenized in incubation buffer (glycylglycine 25 mM, pH 8.0). […] Filters were rinsed extensively with ice-cold rinsing buffer (Tris-HCl 50 mM pH 7.4). Filter-bound radioactivity was determined by scintillation counting in a Topcount (Packard, Meriden, Conn.) and results were expressed as counts per minute (cpm). Non-specific binding was determined in the presence of 1 μM oxymetazoline for hα2A- and hα2B receptors and 1 μM spiroxatrine for hα2C receptors.
(§4) Data from assays in the presence of compound were calculated as a percentage of total binding measured in the absence of test compound. Inhibition curves, plotting percent of total binding versus the log value of the concentration of the test compound, were automatically generated, and sigmoidal inhibition curves were fitted using non-linear regression. The pIC50 values of test compounds were derived from individual curves.

[2] = target: T2, h5-HT transporter (Homo sapiens, UniProt P31645); assay: Radioligand binding experiment for 5-HT transporter ([3H]paroxetine, human platelet membranes); conditions: human platelet membranes, [3H]paroxetine 0.5 nM; for IC50: read-out: 5HTT pIC50 (converted)
T2 construct: Human platelet membranes (Oceanix Biosciences Corporation, Hanover, Md., USA) were thawed; tissue Oceanix Biosciences Corporation, Hanover, Md., USA; host or cells: human platelet membranes
T2 sequence (P31645 whole entry): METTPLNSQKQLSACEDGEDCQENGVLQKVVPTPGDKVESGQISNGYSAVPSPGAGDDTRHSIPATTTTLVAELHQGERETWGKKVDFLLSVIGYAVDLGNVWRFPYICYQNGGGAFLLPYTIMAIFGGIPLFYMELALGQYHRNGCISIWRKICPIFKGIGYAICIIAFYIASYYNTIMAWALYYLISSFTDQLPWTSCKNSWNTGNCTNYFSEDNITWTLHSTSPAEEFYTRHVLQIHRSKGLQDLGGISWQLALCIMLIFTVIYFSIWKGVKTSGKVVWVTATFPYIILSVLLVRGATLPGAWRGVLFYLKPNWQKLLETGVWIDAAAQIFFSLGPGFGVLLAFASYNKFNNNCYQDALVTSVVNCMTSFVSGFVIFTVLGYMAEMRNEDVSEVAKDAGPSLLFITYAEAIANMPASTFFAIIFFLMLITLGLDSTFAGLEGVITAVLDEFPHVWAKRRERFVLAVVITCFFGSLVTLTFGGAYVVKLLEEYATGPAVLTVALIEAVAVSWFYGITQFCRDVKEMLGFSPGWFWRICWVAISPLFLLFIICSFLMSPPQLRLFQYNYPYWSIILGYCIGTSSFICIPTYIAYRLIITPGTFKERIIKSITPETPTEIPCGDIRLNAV
Method: as §1
Human platelet membranes (Oceanix Biosciences Corporation, Hanover, Md., USA) were thawed, diluted in buffer (Tris-HCl 50 mM, 120 mM NaCl and 5 mM KCl) and quickly (max 3 s) homogenised with an Ultraturrax homogenizer. […] Filters were rinsed extensively with ice-cold buffer and radioactivity on the filters was counted in a Topcount liquid scintillation counter (Packard, Meriden, Conn.). Data were expressed as cpm. Imipramine (at 1 μM final concentration) was used to determine the non-specific binding.
as §4

[3] = target: T3, hα2C receptor (Homo sapiens, UniProt P18825); assay: Radioligand binding experiment for hα2C receptor ([3H]-raulwolscine); conditions: membranes of CHO cells expressing human α2C receptor, [3H]raulwolscine 1 nM; for IC50: read-out: hα2C pIC50 (converted)
T3 construct: expressed in transfected cells
T3 sequence (P18825 1-462): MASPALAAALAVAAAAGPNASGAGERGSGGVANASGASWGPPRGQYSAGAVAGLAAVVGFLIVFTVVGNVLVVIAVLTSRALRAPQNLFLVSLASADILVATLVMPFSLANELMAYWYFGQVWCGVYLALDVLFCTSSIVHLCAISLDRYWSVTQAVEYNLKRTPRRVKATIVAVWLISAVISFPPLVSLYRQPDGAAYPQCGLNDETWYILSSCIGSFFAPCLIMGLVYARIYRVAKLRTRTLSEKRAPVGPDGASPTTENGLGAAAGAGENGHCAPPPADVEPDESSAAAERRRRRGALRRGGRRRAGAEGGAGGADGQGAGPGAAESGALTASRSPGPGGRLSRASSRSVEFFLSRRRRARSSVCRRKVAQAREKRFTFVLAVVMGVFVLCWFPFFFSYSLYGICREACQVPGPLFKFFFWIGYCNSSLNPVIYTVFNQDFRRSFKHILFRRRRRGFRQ
Method: as §1, §2, §3, §4

[4] = target: T4, hα2B receptor (Homo sapiens, UniProt P18089); assay: Radioligand binding experiment for hα2B receptor ([3H]-raulwolscine); conditions: membranes of CHO cells expressing human α2B receptor, [3H]raulwolscine 1 nM; for IC50: read-out: hα2B pIC50 (converted)
T4 construct: expressed in transfected cells
T4 sequence (P18089 1-450): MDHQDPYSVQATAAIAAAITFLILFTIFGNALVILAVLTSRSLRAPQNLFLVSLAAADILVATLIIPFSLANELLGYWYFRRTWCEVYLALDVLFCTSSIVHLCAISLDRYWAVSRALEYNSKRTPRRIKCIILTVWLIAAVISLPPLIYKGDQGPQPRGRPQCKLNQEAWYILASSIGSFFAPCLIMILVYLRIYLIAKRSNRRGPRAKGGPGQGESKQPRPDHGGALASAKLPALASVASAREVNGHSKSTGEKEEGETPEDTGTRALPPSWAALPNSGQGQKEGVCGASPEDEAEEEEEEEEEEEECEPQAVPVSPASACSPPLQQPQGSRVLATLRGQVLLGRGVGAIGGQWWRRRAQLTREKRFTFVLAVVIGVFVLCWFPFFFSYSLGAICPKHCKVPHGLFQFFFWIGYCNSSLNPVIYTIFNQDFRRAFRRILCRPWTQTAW
Method: as §1, §2, §3, §4

Row | SMILES | IC50 [1] | IC50 [2] | IC50 [3] | IC50 [4] | hα2A pIC50 [1] | 5HTT pIC50 [2] | hα2C pIC50 [3] | hα2B pIC50 [4]
1 | COc1cc2c(cc1OC)C1=NOC(CN3CCN(CC=Cc4ccc5ccccc5c4)CC3)C1CO2 (centres unmarked) [Compound 181] | 282 nM | 23.4 nM | 324 nM | 776 nM | – | – | – | –
2 | COc1cc2c(cc1OC)C1=NOC(CN3CCN(C/C=C/C=C/c4ccccc4)CC3)C1CO2 (single isomer, unassigned) [Compound 127] | 141 nM | 63.1 nM | 25.7 nM | 123 nM | – | – | – | –
3 | COc1cc2c(cc1OC)C1=NOC(CN(C=O)C3CCN(Cc4ccc5ccccc5c4)CC3)C1CO2 (racemic) [Compound 282] | – | – | – | – | 7.66 | 8.06 | 7.64 | 7.26
4 | COc1cc2c(cc1OC)C1=NOC(CN3CCN(Cc4ccccc4)CC3)C1CO2 (centres unmarked) [Compound 31] | 794 nM | 501 nM | 1000 nM | 631 nM | – | – | – | –
5 | COc1cc2c(cc1OC)C1=NOC(CN3CCN(Cc4ccc5cc(C)ccc5c4)CC3)C1CO2 (centres unmarked) [Compound 72] | 46.8 nM | 6.92 nM | 66.1 nM | 178 nM | – | – | – | –
6 | COc1cc2c(cc1OC)C1=NOC(CN3CCN(Cc4ccc5cc(F)ccc5c4)CC3)C1CO2 (centres unmarked) [Compound 76] | 72.4 nM | 1.58 nM | 25.1 nM | 89.1 nM | – | – | – | –
7 | C(=Cc1ccccc1)CN1CCN(CC2ON=C3c4cc5c(cc4OCC32)OCC5)CC1 (racemic) [Compound 279] | – | – | – | – | 8.45 | 7.45 | 8.24 | 8.03
8 | CCC(=Cc1ccccc1)CN1CCN(CC2ON=C3c4cc(OC)c(OC)cc4OCC32)CC1 (centres unmarked) [Compound 154] | 53.7 nM | 89.1 nM | 87.1 nM | 40.7 nM | – | – | – | –
9 | COc1cc2c(cc1OC)C1=NOC(CN3CCN(CC(C)Nc4ccccc4)CC3)C1CO2 (centres unmarked) [Compound 26] | 525 nM | 676 nM | 245 nM | 102 nM | – | – | – | –
10 | COc1cc2c(cc1OC)C1=NOC(CN3CCN(CC=Cc4cccc(C)c4)CC3)C1CO2 (centres unmarked) [Compound 110] | 69.2 nM | 30.2 nM | 34.7 nM | 112 nM | – | – | – | –
11 | COc1cc2c(cc1OC)C1=NOC(CN(C)C3CCN(Cc4ccc5ccccc5c4)CC3)C1CO2 (racemic) [Compound 281] | – | – | – | – | 7.05 | 7.25 | 7.31 | 7.19
12 | CN1CC2C(=NOC2CN2CCN(Cc3ccc4ccccc4c3)CC2)c2ccccc21 (centres unmarked) [Compound 266] | – | – | – | – | 7.84 | 8.88 | 7.45 | 7.80
13 | COc1cc2c(cc1OC)C1=NOC(CN3CCN(C/C=C/c4ccc(F)cc4F)CC3)C1CO2 (single isomer, unassigned) [Compound 185] | 145 nM | 12.6 nM | 29.5 nM | 77.6 nM | – | – | – | –
14 | COc1cc2c(cc1OC)C1=NOC(CN3CCN(CCc4ccc5c(c4)OCO5)CC3)C1CO2 (centres unmarked) [Compound 47] | 661 nM | 50.1 nM | 851 nM | 447 nM | – | – | – | –
15 | COc1cc2c(cc1F)C1=NOC(CN3CCN(CC(C)=Cc4ccccc4)CC3)C1CO2 (centres unmarked) [Compound 241] | 16.6 nM | – | 6.31 nM | 7.41 nM | – | – | – | –

Further lines, with some results ahead:

Row | IC50 [1] | IC50 [2] | IC50 [3] | IC50 [4] | SMILES | hα2A pIC50 [1] | 5HTT pIC50 [2] | hα2C pIC50 [3] | hα2B pIC50 [4]
16 | 759 nM | 871 nM | 724 nM | 407 nM | COc1cc2c(cc1OC)C1=NOC(CN3CCN(Cc4ccoc4)CC3)C1CO2 (centres unmarked) [Compound 296] | – | – | – | –
17 | 3.47 nM | 14.8 nM | 27.5 nM | 20.9 nM | COc1ccc2c(c1)OCC1C2=NOC1CN1CCN(Cc2ccc3ccccc3c2)CC1 (centres unmarked) [Compound 265] | – | – | – | –
18 | 347 nM | 724 nM | 631 nM | 933 nM | COc1cc2c(cc1OC)C1=NOC(CN3CCN(Cc4ccsc4)CC3)C1CO2 (centres unmarked) [Compound 300] | – | – | – | –
19 | 3.24 nM | 245 nM | 6.92 nM | 7.24 nM | C(=Cc1ccccc1)CN1CCN(CC2ON=C3c4cc5c(cc4OCC32)OCO5)CC1 (centres unmarked) [Compound 278] | – | – | – | –
20 | 4.79 nM | 30.2 nM | 4.68 nM | 3.8 nM | COc1cc2c(cc1OC(C)=O)C1=NOC(CN3CCN(C/C(C)=C/c4ccccc4)CC3)C1CO2 (single isomer, unassigned) [Compound 333] | – | – | – | –
21 | 11.2 nM | 8.71 nM | 6.46 nM | 6.92 nM | COc1cc2c(cc1OC)C1=NOC(CN3CCN(C/C=C/c4ccsc4)CC3)C1CO2 (single isomer, unassigned) [Compound 314] | – | – | – | –
22 | 10.5 nM | 407 nM | 120 nM | 174 nM | COc1cc2c(cc1OC)C1=NOC(CN3CCN(C(C)/C=C/c4ccccc4)CC3)C1CO2 (single isomer, unassigned) [Compound 316] | – | – | – | –
23 | 19.5 nM | 38.9 nM | 64.6 nM | 58.9 nM | COc1cc2c(cc1OC)C1=NOC(CN3CCN(Cc4ccc5c(N)cccc5c4)CC3)C1CO2 (centres unmarked) [Compound 304] | – | – | – | –
24 | 91.2 nM | 8.13 nM | 380 nM | 447 nM | COc1ccc2c(c1)OCC1C2=NOC1CCN1CCN(Cc2ccc3ccccc3c2)CC1 (centres unmarked) [Compound 280] | – | – | – | –
